Experimental data reported in article PMC10436550, “Subacute toxicity evaluations of LPM3480392 in rats, a full µ-opioid receptor biased agonist” (Frontiers in Pharmacology, 2023).

Tests used:
Sprague Dawley (SD) rats [1] = assay: Urinalysis, 4-week subacute toxicity study; type: in vivo, rat
Experimental: Urine samples were directly collected from the metabolic cage at the end of dosing phase (Day 26) and at the end of recovery phase (Recovery Day 28), respectively. Urinalysis parameters in Table 1 were evaluated using CLINITEK Atlas automatic urine analyzer (Germany).

Sprague Dawley (SD) rats [2] = assay: Gross necropsy; type: in vivo, rat; details: end of dosing phase and recovery phase
Experimental: Complete gross necropsies were conducted on all surviving animals at the end of treatment (the day after the last dosing) and recovery periods. The following selected organs were weighed and evaluated in terms of organ/body or organ/brain weight ratios: brain, kidneys, adrenals, testes, ovaries, uterus, epididymides, thymus, spleen, heart and liver. Paired organs were weighed together. Organ-to-body weight ratio = Organ weight(g)/Body weight(g) × 100%, and Organ-to-brain weight ratio = Organ weight(g)/Brain weight(g) × 100%.

[3] = 0.6 mg/kg/day, End of dosing phase, N 5
[4] = 0.6 mg/kg/day, End of recovery phase, N 5
[5] = 1.2 mg/kg/day, End of dosing phase, N 5
[6] = 1.2 mg/kg/day, End of recovery phase, N 5
[7] = 2.4 mg/kg/day, End of dosing phase, N 4
[8] = 2.4 mg/kg/day, End of dosing phase, N 5
[9] = 2.4 mg/kg/day, End of recovery phase, N 4
[10] = 2.4 mg/kg/day, End of recovery phase, N 5

## Fc1ccc([C@]2(CCNCc3cccc(Cl)c3)CCO[C@]3(CCOC3)C2)nc1 [LPM3480392]
Sprague Dawley (SD) rats [1]; [3]
  KET (mmol/L) of males: animals with grade 1.5: 3
  KET (mmol/L) of males: animals with grade 3.9: 1
  KET (mmol/L) of males: animals with grade —: 1
  NIT of males: animals with grade +: 2
  NIT of males: animals with grade —: 3
  pH of females: animals with grade 7.0: 1
  pH of females: animals with grade 7.5: 3
  pH of females: animals with grade 8.5: 1
Sprague Dawley (SD) rats [1]; [4]
  KET (mmol/L) of males: animals with grade 1.5: 2
  KET (mmol/L) of males: animals with grade 3.9: 1
  KET (mmol/L) of males: animals with grade —: 2
  NIT of males: animals with grade +: 3
  NIT of males: animals with grade —: 2
  pH of females: animals with grade 6.0: 0
  pH of females: animals with grade 6.5: 0
  pH of females: animals with grade 7.0: 0
  pH of females: animals with grade 7.5: 4
  pH of females: animals with grade 8.0: 1
Sprague Dawley (SD) rats [1]; [5]
  KET (mmol/L) of males: animals with grade 1.5: 3
  KET (mmol/L) of males: animals with grade 3.9: 1
  KET (mmol/L) of males: animals with grade —: 1
  NIT of males: animals with grade +: 1
  NIT of males: animals with grade —: 4
  pH of females: animals with grade 7.0: 1
  pH of females: animals with grade 7.5: 3
  pH of females: animals with grade 8.5: 1
Sprague Dawley (SD) rats [1]; [6]
  KET (mmol/L) of males: animals with grade 1.5: 2
  KET (mmol/L) of males: animals with grade 3.9: 1
  KET (mmol/L) of males: animals with grade —: 2
  NIT of males: animals with grade +: 1
  NIT of males: animals with grade —: 4
  pH of females: animals with grade 6.0: 1
  pH of females: animals with grade 6.5: 0
  pH of females: animals with grade 7.0: 2
  pH of females: animals with grade 7.5: 1
  pH of females: animals with grade 8.0: 1
Sprague Dawley (SD) rats [1]; [7]
  pH of females: animals with grade 7.0: 0
  pH of females: animals with grade 7.5: 1
  pH of females: animals with grade 8.5: 3
Sprague Dawley (SD) rats [1]; [8]
  KET (mmol/L) of males: animals with grade 1.5: 0
  KET (mmol/L) of males: animals with grade 3.9: 0
  KET (mmol/L) of males: animals with grade —: 5
  NIT of males: animals with grade +: 1
  NIT of males: animals with grade —: 4
Sprague Dawley (SD) rats [1]; [9]
  pH of females: animals with grade 6.0: 0
  pH of females: animals with grade 6.5: 2
  pH of females: animals with grade 7.0: 2
  pH of females: animals with grade 7.5: 0
  pH of females: animals with grade 8.0: 0
Sprague Dawley (SD) rats [1]; [10]
  KET (mmol/L) of males: animals with grade 1.5: 1
  KET (mmol/L) of males: animals with grade 3.9: 0
  KET (mmol/L) of males: animals with grade —: 4
  NIT of males: animals with grade +: 0
  NIT of males: animals with grade —: 5
Sprague Dawley (SD) rats [2]
  Gross necropsy findings in main organs: no LPM3480392-related abnormalities
